Where two headings read alike, the source gives them in different places. Positions of bridges follow the written chain, without caps; N, C: chain ends. Residues, ends and D or L forms follow the SMILES beside them.
What was measured:
hNav1.7 = target: T1, hNav1.7 (Homo sapiens, UniProt Q15858); test: cell-based; details: whole-cell patch clamp, HEK293T, mean ± SEM, this study, read-out: IC50 on hNav1.7
T1 construct: expressed in transfected cells; host or cells: HEK293T

rKv4.2 = target: T2, rKv4.2 (Rattus norvegicus, UniProt Q63881); test: cell-based; details: for IC50: whole-cell patch clamp, HEK293T, mean ± SEM, n = 3-8, read-out: IC50 on rKv4.2 WT
T2 construct: expressed in transfected cells; host or cells: HEK293T
T2 sequence (Q63881 1-630): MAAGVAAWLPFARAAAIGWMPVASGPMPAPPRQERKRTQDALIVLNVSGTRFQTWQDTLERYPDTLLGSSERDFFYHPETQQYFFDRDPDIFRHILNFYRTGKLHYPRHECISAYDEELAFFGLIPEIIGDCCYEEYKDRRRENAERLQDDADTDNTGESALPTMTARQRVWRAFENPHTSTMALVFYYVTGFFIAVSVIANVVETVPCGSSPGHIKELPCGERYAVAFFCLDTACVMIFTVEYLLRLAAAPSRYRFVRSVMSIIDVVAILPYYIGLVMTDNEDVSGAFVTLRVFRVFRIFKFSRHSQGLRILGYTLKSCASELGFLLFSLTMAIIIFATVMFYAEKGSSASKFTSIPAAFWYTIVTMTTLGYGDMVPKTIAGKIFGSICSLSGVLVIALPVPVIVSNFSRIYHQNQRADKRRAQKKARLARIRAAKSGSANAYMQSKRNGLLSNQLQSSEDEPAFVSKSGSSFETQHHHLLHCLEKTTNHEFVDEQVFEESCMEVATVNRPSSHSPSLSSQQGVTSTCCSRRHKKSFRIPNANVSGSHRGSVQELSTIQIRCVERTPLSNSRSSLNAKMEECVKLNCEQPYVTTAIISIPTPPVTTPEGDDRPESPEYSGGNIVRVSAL

T1 sequence (O60939 30-215): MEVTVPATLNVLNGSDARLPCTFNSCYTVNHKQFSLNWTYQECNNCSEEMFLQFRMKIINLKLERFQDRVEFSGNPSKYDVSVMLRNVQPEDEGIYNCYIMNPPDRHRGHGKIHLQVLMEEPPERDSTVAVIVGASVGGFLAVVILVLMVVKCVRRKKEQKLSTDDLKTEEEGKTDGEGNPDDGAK
T1 sequence (Q15858 other isoform, or with tags, fused parts or gaps): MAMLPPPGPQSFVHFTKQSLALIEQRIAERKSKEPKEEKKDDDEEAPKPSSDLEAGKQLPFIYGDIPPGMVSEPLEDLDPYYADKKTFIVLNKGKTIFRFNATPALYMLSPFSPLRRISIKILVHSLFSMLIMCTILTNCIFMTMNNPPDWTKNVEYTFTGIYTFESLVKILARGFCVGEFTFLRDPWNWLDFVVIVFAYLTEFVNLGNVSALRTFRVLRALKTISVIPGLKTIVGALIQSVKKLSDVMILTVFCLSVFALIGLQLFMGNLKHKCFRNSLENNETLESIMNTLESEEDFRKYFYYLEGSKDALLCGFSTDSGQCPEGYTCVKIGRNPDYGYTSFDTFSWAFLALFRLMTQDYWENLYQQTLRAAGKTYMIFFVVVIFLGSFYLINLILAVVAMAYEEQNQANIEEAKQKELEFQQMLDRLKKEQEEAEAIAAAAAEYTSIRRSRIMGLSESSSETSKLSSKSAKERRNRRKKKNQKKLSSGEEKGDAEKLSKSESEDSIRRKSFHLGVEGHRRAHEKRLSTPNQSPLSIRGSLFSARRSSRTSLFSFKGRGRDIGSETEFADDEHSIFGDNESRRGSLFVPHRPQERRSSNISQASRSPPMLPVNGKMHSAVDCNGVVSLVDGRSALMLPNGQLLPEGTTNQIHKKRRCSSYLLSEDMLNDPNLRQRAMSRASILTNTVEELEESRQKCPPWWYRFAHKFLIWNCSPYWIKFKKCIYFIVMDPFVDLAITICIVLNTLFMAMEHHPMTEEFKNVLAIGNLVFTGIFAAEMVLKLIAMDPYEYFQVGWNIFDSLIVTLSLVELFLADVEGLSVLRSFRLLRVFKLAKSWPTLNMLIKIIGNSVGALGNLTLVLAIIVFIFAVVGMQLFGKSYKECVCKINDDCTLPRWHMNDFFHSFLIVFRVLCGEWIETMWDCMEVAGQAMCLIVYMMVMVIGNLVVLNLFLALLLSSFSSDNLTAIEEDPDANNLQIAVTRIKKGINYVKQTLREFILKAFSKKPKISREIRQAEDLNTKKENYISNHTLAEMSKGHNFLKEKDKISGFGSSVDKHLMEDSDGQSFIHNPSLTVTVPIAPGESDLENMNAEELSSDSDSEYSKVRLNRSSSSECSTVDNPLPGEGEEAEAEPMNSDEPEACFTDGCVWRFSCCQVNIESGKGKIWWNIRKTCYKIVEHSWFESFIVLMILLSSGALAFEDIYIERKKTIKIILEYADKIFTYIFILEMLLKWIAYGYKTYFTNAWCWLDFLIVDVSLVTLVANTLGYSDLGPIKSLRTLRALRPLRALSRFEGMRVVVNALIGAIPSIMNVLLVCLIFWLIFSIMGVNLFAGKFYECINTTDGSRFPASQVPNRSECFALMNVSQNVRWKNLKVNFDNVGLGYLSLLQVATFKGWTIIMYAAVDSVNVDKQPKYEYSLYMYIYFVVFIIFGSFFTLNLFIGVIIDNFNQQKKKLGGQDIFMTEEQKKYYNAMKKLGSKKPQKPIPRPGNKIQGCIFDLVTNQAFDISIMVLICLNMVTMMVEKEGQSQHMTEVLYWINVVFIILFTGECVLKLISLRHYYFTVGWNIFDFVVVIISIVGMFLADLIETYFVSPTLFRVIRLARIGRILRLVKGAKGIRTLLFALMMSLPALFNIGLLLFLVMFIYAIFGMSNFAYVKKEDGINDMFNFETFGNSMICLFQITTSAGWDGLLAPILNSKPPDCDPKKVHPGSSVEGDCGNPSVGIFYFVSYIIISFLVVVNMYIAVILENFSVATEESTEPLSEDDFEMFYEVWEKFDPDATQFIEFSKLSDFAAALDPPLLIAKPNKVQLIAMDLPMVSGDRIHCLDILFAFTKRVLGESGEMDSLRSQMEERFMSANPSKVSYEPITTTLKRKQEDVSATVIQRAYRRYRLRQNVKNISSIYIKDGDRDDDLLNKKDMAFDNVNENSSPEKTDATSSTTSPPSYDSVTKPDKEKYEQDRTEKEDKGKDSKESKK
T1 sequence (Q07699 19-218, further chain): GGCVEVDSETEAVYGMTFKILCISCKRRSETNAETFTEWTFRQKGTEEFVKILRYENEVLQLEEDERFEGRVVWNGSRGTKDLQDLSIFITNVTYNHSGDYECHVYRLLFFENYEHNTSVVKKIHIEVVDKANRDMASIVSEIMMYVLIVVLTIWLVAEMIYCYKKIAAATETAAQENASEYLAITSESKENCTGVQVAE

| SMILES | IC50 (rKv4.2; SEM) [nM] | other results |
| --- | --- | --- |
| CC(C)C[C@H](NC(=O)[C@H](Cc1ccc(O)cc1)NC(=O)[C@@H](NC(=O)[C@H](CCCCN)NC(=O)[C@@H]1CSSC[C@@H]2NC(=O)[C@H](CCC(=O)O)NC(=O)[C@H](CC(N)=O)NC(=O)[C@H](CCCCN)NC(=O)CNC(=O)[C@@H]3CCCN3C(=O)[C@H]([C@@H](C)O)NC(=O)[C@@H]3CSSC[C@H](NC(=O)[C@H](C)NC(=O)[C@H](Cc4ccc(O)cc4)NC(=O)[C@H](CC(N)=O)NC(=O)[C@@H]4CCCN4C(=O)[C@H](CSSC[C@H](NC(=O)CN)C(=O)N[C@@H](CCCCN)C(=O)NCC(=O)N[C@@H](Cc4ccccc4)C(=O)NCC(=O)N[C@@H](CC(=O)O)C(=O)N[C@@H](CO)C(=O)N3)NC2=O)C(=O)N[C@@H](CO)C(=O)N[C@@H](CO)C(=O)N[C@@H](C)C(=O)N[C@@H](Cc2c[nH]cn2)C(=O)N[C@@H](CCCCN)C(=O)N[C@@H](Cc2c[nH]c3ccccc23)C(=O)N1)C(C)C)C(N)=O [K25A] (H-GCKGFGDSCTPGKNECCPNYACSSAHKWCKVYL-NH2; disulfide 2-17, 9-22, 16-29) |  | IC50 (hNav1.7; SEM): 2000 ± 332 nM; IC50 (rKv4.2): > 20000 nM |
| CC(C)[C@H](NC(=O)[C@H](CCCCN)NC(=O)[C@@H]1CSSC[C@@H]2NC(=O)[C@H](CCC(=O)O)NC(=O)[C@H](CC(N)=O)NC(=O)[C@H](CCCCN)NC(=O)CNC(=O)[C@@H]3CCCN3C(=O)[C@H]([C@@H](C)O)NC(=O)[C@@H]3CSSC[C@H](NC(=O)[C@H](C)NC(=O)[C@H](Cc4ccc(O)cc4)NC(=O)[C@H](CC(N)=O)NC(=O)[C@@H]4CCCN4C(=O)[C@H](CSSC[C@H](NC(=O)CN)C(=O)N[C@@H](CCCCN)C(=O)NCC(=O)N[C@@H](Cc4ccccc4)C(=O)NCC(=O)N[C@@H](CC(=O)O)C(=O)N[C@@H](CO)C(=O)N3)NC2=O)C(=O)N[C@@H](CO)C(=O)N[C@@H](CO)C(=O)N[C@@H](CCCCN)C(=O)N[C@@H](Cc2c[nH]cn2)C(=O)N[C@@H](CCCCN)C(=O)N[C@@H](Cc2c[nH]c3ccccc23)C(=O)N1)C(=O)N[C@@H](Cc1ccc(O)cc1)C(=O)N[C@@H](CCCCN)C(N)=O [L33K] (H-GCKGFGDSCTPGKNECCPNYACSSKHKWCKVYK-NH2; disulfide 2-17, 9-22, 16-29) | 20000 ± 4000 | IC50 (hNav1.7): > 10000 nM |
| CC(C)C[C@H](NC(=O)[C@H](Cc1ccc(O)cc1)NC(=O)[C@@H](NC(=O)[C@H](CCCCN)NC(=O)[C@@H]1CSSC[C@@H]2NC(=O)[C@H](CCC(=O)O)NC(=O)[C@H](CC(N)=O)NC(=O)[C@H](CCCCN)NC(=O)CNC(=O)[C@@H]3CCCN3C(=O)[C@H]([C@@H](C)O)NC(=O)[C@@H]3CSSC[C@H](NC(=O)[C@H](C)NC(=O)[C@H](Cc4ccc(O)cc4)NC(=O)[C@H](CC(C)C)NC(=O)[C@@H]4CCCN4C(=O)[C@H](CSSC[C@H](NC(=O)CN)C(=O)N[C@@H](CCCCN)C(=O)NCC(=O)N[C@@H](Cc4ccccc4)C(=O)NCC(=O)N[C@@H](CC(=O)O)C(=O)N[C@@H](CO)C(=O)N3)NC2=O)C(=O)N[C@@H](CO)C(=O)N[C@@H](CO)C(=O)N[C@@H](CCCCN)C(=O)N[C@@H](Cc2c[nH]cn2)C(=O)N[C@@H](CCCCN)C(=O)N[C@@H](Cc2c[nH]c3ccccc23)C(=O)N1)C(C)C)C(N)=O [N19L] (H-GCKGFGDSCTPGKNECCPLYACSSKHKWCKVYL-NH2; disulfide 2-17, 9-22, 16-29) | 42 ± 4 |  |
| CC(C)C[C@H](NC(=O)[C@H](Cc1ccc(O)cc1)NC(=O)[C@@H](NC(=O)[C@H](CCCCN)NC(=O)[C@@H]1CSSC[C@@H]2NC(=O)[C@H](CCC(=O)O)NC(=O)[C@H](CC(N)=O)NC(=O)[C@H](CCCCN)NC(=O)CNC(=O)[C@@H]3CCCN3C(=O)[C@H]([C@@H](C)O)NC(=O)[C@@H]3CSSC[C@H](NC(=O)[C@H](C)NC(=O)[C@H](Cc4ccc(O)cc4)NC(=O)[C@H](CC(N)=O)NC(=O)[C@H](C)NC(=O)[C@H](CSSC[C@H](NC(=O)CN)C(=O)N[C@@H](CCCCN)C(=O)NCC(=O)N[C@@H](Cc4ccccc4)C(=O)NCC(=O)N[C@@H](CC(=O)O)C(=O)N[C@@H](CO)C(=O)N3)NC2=O)C(=O)N[C@@H](CO)C(=O)N[C@@H](CO)C(=O)N[C@@H](CCCCN)C(=O)N[C@@H](Cc2c[nH]cn2)C(=O)N[C@@H](CCCCN)C(=O)N[C@@H](Cc2c[nH]c3ccccc23)C(=O)N1)C(C)C)C(N)=O [P18A] (H-GCKGFGDSCTPGKNECCANYACSSKHKWCKVYL-NH2; disulfide 2-17, 9-22, 16-29) | 140 ± 43 |  |
| CC(C)C[C@H](NC(=O)[C@H](Cc1ccc(O)cc1)NC(=O)[C@@H](NC(=O)[C@H](CCCCN)NC(=O)[C@@H]1CSSC[C@@H]2NC(=O)[C@H](CCC(=O)O)NC(=O)[C@H](CC(N)=O)NC(=O)[C@H](CCCCN)NC(=O)CNC(=O)[C@@H]3CCCN3C(=O)[C@H]([C@@H](C)O)NC(=O)[C@@H]3CSSC[C@H](NC(=O)[C@H](C)NC(=O)[C@H](Cc4ccc(O)cc4)NC(=O)[C@H](CC(N)=O)NC(=O)[C@H](CCCCN)NC(=O)[C@H](CSSC[C@H](NC(=O)CN)C(=O)N[C@@H](CCCCN)C(=O)NCC(=O)N[C@@H](Cc4ccccc4)C(=O)NCC(=O)N[C@@H](CC(=O)O)C(=O)N[C@@H](CO)C(=O)N3)NC2=O)C(=O)N[C@@H](CO)C(=O)N[C@@H](CO)C(=O)N[C@@H](CCCCN)C(=O)N[C@@H](Cc2c[nH]cn2)C(=O)N[C@@H](CCCCN)C(=O)N[C@@H](Cc2c[nH]c3ccccc23)C(=O)N1)C(C)C)C(N)=O [P18K] (H-GCKGFGDSCTPGKNECCKNYACSSKHKWCKVYL-NH2; disulfide 2-17, 9-22, 16-29) | 167 ± 117 |  |
| CC(C)C[C@H](NC(=O)[C@H](Cc1ccc(O)cc1)NC(=O)[C@@H](NC(=O)[C@H](CCCCN)NC(=O)[C@@H]1CSSC[C@@H]2NC(=O)[C@H](CCC(=O)O)NC(=O)[C@H](CC(N)=O)NC(=O)[C@H](CCCCN)NC(=O)CNC(=O)[C@@H]3CCCN3C(=O)[C@H](CCC(=O)O)NC(=O)[C@@H]3CSSC[C@H](NC(=O)[C@H](C)NC(=O)[C@H](Cc4ccc(O)cc4)NC(=O)[C@H](CC(N)=O)NC(=O)[C@@H]4CCCN4C(=O)[C@H](CSSC[C@H](NC(=O)CN)C(=O)N[C@@H](CCCCN)C(=O)NCC(=O)N[C@@H](Cc4ccccc4)C(=O)NCC(=O)N[C@@H](CC(=O)O)C(=O)N[C@@H](CO)C(=O)N3)NC2=O)C(=O)N[C@@H](CO)C(=O)N[C@@H](CO)C(=O)N[C@@H](CCCCN)C(=O)N[C@@H](Cc2c[nH]cn2)C(=O)N[C@@H](CCCCN)C(=O)N[C@@H](Cc2c[nH]c3ccccc23)C(=O)N1)C(C)C)C(N)=O [T10E] (H-GCKGFGDSCEPGKNECCPNYACSSKHKWCKVYL-NH2; disulfide 2-17, 9-22, 16-29) | 452 ± 221 |  |
| CC(C)C[C@H](NC(=O)[C@H](Cc1ccc(O)cc1)NC(=O)[C@@H](NC(=O)[C@H](CCCCN)NC(=O)[C@@H]1CSSC[C@@H]2NC(=O)[C@H](CCC(=O)O)NC(=O)[C@H](CC(N)=O)NC(=O)[C@H](CCCCN)NC(=O)CNC(=O)[C@@H]3CCCN3C(=O)[C@H]([C@@H](C)O)NC(=O)[C@@H]3CSSC[C@H](NC(=O)[C@H](C)NC(=O)[C@H](Cc4ccc(O)cc4)NC(=O)[C@H](CC(N)=O)NC(=O)[C@@H]4CCCN4C(=O)[C@H](CSSC[C@H](NC(=O)CN)C(=O)N[C@@H](CCCCN)C(=O)NCC(=O)N[C@@H](Cc4ccccc4)C(=O)NCC(=O)N[C@@H](CC(=O)O)C(=O)N[C@@H](CO)C(=O)N3)NC2=O)C(=O)N[C@@H](CO)C(=O)N[C@@H](CO)C(=O)N[C@@H](CCCCN)C(=O)N[C@@H](Cc2c[nH]cn2)C(=O)N[C@@H](CCCCN)C(=O)N[C@@H](C)C(=O)N1)C(C)C)C(N)=O [W28A] (H-GCKGFGDSCTPGKNECCPNYACSSKHKACKVYL-NH2; disulfide 2-17, 9-22, 16-29; N-terminus and C-terminus assumed) |  | inhibition of rKv4.2, in words (rKv4.2; analogue compared with its parent toxin): dramatically decreased inhibition |
